pIC50: −log10 of the molar value. Several values for one entry are separate records, joined by “and”; a condition that tells them apart may be missing. Equal values may be shown once. Some results are limits rather than exact numbers.

Series [1] has as its target Glycogen synthase kinase-3 beta (Homo sapiens, UniProt P49841). In words: Inhibition of human GSK3-beta.
Series [2] can be described thus: Inhibition of human CDK2/cyclin A.
Series [3] can be described thus: Effect on cell proliferation assessed as radiolabeled thymidine incorporation in cell-based assay. The following applies: Homo sapiens. Type of series: functional. A general note: Uptake of a labelled nucleoside into DNA is a usual measure of proliferation.
The nature of series [4]: Inhibition of human MAPK.
Series [5] can be described thus: AUC in dog at 5 mg/kg. Also on record: dose 5 mg/kg. In kind it is ADME, organism-based, Canis lupus familiaris. The following applies: plasma.
The nature of series [6]: Cmax in dog at 5 mg/kg, po. Type of series: ADME, organism-based, Canis lupus familiaris. More on the design: dose 5 mg/kg, route oral. The following applies: in vivo.
The nature of series [7]: AUC in monkey at 10 mg/kg. Type of series: ADME, organism-based, Macaca mulatta. Also on record: dose 10 mg/kg. The following applies: rhesus monkey, plasma.
Series [8] is described as follows: Tmax in monkey at 10 mg/kg. The following applies: rhesus monkey, in vivo. More on the design: dose 10 mg/kg. Type of series: ADME, organism-based, Macaca mulatta.
Series [9] is described as follows: Tmax in rat at 10 mg/kg. The following applies: in vivo. Also on record: dose 10 mg/kg. In kind it is ADME, organism-based.
The species named for the next series is Rattus norvegicus. The experiment in a line: Protein binding in rat. Type of series: ADME, organism-based. The following applies: in vivo.
The nature of series [10]: Cmax in monkey at 10 mg/kg. In kind it is ADME, organism-based, Macaca mulatta. Also on record: dose 10 mg/kg. The following applies: rhesus monkey, in vivo.
The species named for another series is Homo sapiens. The experiment in a line: Protein binding in human. Type of series: ADME, organism-based. The following applies: in vivo.
A short description of series [11]: Cmax in mouse at 40 mg/kg. In kind it is ADME, organism-based. Also on record: dose 40 mg/kg. The following applies: in vivo.
A short description of series [12]: Tmax in mouse at 40 mg/kg. In kind it is ADME, organism-based. More on the design: dose 40 mg/kg. The following applies: in vivo.
Series [13] in a line: Cmax in rat at 10 mg/kg. In kind it is ADME, organism-based. Also on record: dose 10 mg/kg. The following applies: in vivo.
The nature of series [14]: AUC in rat at 10 mg/kg. Type of series: ADME, organism-based. More on the design: dose 10 mg/kg. The following applies: plasma.
A further series is filed under the species Canis familiaris. In words: Protein binding in dog. Type of series: ADME, organism-based, Canis lupus familiaris. The following applies: in vivo.
Series [15] is described as follows: AUC in mouse at 40 mg/kg. In kind it is ADME, organism-based. More on the design: dose 40 mg/kg. The following applies: plasma.
A further series is filed under the species Mus musculus. In words: Protein binding in mouse. The following applies: in vivo. In kind it is ADME, organism-based.
The subject of the next series is Rhesus monkey. The experiment in a line: Protein binding in monkey. In kind it is ADME, organism-based, Macaca mulatta. The following applies: in vivo.
Another series relates to A2780. The experiment in a line: Antitumor activity against A2780 cells xenografted in mouse at 40 mg/kg, po QD for 10 days. Type of series: functional. The following applies: A2780, 240 h.

Chain of Glycogen synthase kinase-3 beta (P49841 whole entry): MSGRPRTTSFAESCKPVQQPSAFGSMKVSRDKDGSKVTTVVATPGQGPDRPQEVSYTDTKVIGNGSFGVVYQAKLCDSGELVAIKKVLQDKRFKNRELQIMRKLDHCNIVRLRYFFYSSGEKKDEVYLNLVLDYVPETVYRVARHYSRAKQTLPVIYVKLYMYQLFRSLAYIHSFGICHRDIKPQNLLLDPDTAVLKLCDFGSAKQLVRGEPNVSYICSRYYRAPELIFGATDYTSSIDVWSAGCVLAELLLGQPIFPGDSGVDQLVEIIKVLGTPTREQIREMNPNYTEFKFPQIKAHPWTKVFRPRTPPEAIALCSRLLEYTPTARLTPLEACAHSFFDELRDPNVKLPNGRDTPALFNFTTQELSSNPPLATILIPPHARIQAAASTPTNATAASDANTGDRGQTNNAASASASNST

Turning to `CNc1cc(-c2ccccc2Cl)nc2c(Br)cnn12`, the pIC50 (usually the negative decadic logarithm of the IC50, by convention in mol/L) is 6.61 in series [1], 7.70 in [2] and 5.74 in series [3].
Compound `OC(c1cnn2c(NCc3cccnc3)cc(-c3ccccc3)nc12)C(F)(F)F` (stereo unspecified) showed a pIC50 in [2] of 5.47.
For `c1ccc(-c2cc(NCc3cccnc3)n3ncc(-c4ccccc4)c3n2)cc1`, the pIC50 in series [2] is < 4.30.
In series [2], `CN(C)Cc1cnn2c(NCc3cccnc3)cc(-c3ccccc3)nc12` gave a pIC50 of 4.47.
On to `CC(=O)c1cnn2c(NCc3cccnc3)cc(-c3ccccc3)nc12`, for which the pIC50 in series [2] is < 4.30.
In [2], `OCCSc1cnn2c(NCc3cccnc3)cc(-c3ccccc3)nc12` showed a pIC50 of 7.52.
On to `Cc1cc(NCc2cccnc2)n2ncc(Br)c2n1`, for which the figures for the pIC50 in series [1], in series [2] and in series [3] were 5.45, 7.22 and 5.74, respectively.
Consider `CSc1cc(NCc2cccnc2)n2ncc(Br)c2n1`, for which the figures for the pIC50 in series [1], in series [2] and in series [3] were 5.93, 7.42 and 6.00, respectively.
Take `Cc1ccccc1-c1cc(NCc2ccc[n+]([O-])c2)n2ncc(Br)c2n1`: the pIC50 in series [2] is 7.31.
`Nc1cc(-c2ccccc2)nc2c(Br)cnn12`: the pIC50 in [2] was 6.60.
Turning to `Brc1cnn2c(NCc3cccnc3)cc(-c3ccccc3)nc12`, the results for the pIC50 in series [1], in series [4] and in [2] were 6.24, 6.43 and 7.96, respectively.
In the case of `CCc1cnn2c(NCc3cccnc3)cc(-c3ccccc3)nc12`, the results for the pIC50 in [1], in series [4] and in series [2] were 5.55, 5.70 and 8.10, respectively.
For the compound `CCCc1cnn2c(NCc3cccnc3)cc(-c3ccccc3)nc12`, in series [2], the pIC50 is 6.05.
As to `C#Cc1cnn2c(NCc3cccnc3)cc(-c3ccccc3)nc12`, the pIC50 was 5.01 in [1], 5.13 in series [4] and 7.32 in series [2].
`C#CCc1cnn2c(NCc3cccnc3)cc(-c3ccccc3)nc12`: the pIC50 in [2] is 6.08.
The compound `c1ccc(-c2cc(NCc3cccnc3)n3ncc(C4CC4)c3n2)cc1` had a pIC50 in series [2] of 7.15.
`CCCNc1cc(-c2ccccc2Cl)nc2c(Br)cnn12` showed a pIC50 in series [2] of 6.79.
`Clc1ccccc1-c1cc(NC2CC2)n2ncc(Br)c2n1` gave a pIC50 in [2] of 6.08.
With `FC(F)(F)Cc1cnn2c(NCc3cccnc3)cc(-c3ccccc3)nc12`, the pIC50 in [2] is 6.15.
For the compound `COc1cnn2c(NCc3cccnc3)cc(-c3ccccc3)nc12`, in series [2], the pIC50 is 5.96.
For the compound `Fc1ccccc1-c1cc(NCc2ccccc2)n2ncc(Br)c2n1`, the values for the pIC50 in series [1] and in series [2] were 4.82 and 6.52, respectively.
Turning to `Brc1cnn2c(NCc3cccnc3)cc(-c3ccco3)nc12`, the pIC50 is 6.51 in series [1], 8.10 in [2] and 4.82 in series [3].
For `Brc1cnn2c(NCOc3cccnc3)cc(-c3ccccc3)nc12`, the pIC50 in series [1] is 6.22; in series [2], 7.47; in [3], 6.85.
For `CCOC(=O)c1cc(NCc2cccnc2)n2ncc(Br)c2n1`, in that order: 6.10, 7.05 and 5.54.
Regarding `CC(C)c1cc(NCc2cccnc2)n2ncc(Br)c2n1`, the pIC50 in series [1] was 6.38; in series [2] it was 7.77; in series [3], 6.02.
For `COc1cc(NCc2cccnc2)n2ncc(Br)c2n1`, in that order: 5.85, 7.46 and 5.70.
Consider `Brc1cnn2c(NCc3cccnc3)cc(C3CCNCC3)nc12`, for which the pIC50 was 6.39 in series [1], 7.80 in series [2] and 6.80 in series [3].
The corresponding values for `CC(O)c1cc(NCc2cccnc2)n2ncc(Br)c2n1` (stereo unspecified) are 6.30, 7.42 and 5.85.
Take `Brc1cnn2c(NCc3cccnc3)cc(C3CCCCC3)nc12`: the pIC50 in series [1] is 7.57; in series [2], 8.40; in [3], 6.70.
As for `Brc1cnn2c(NCc3cccnc3)cc(C3CCCNC3)nc12` (stereo unspecified), the pIC50 in series [1] was 6.74; in [2] it was 8.10; in series [3] it was 7.22.
In turn, `Brc1cnn2c(NCc3cccnc3)cc(N3CCNCC3)nc12` gave a pIC50 in series [2] of 6.68.
Turning to `Clc1ccccc1-c1cc(NCOc2cccnc2)n2ncc(Br)c2n1`, the pIC50 is 7.46 in [1], 7.96 in [2] and 6.77 in series [3].
As to `Fc1ccccc1-c1cc(NCOc2cccnc2)n2ncc(Br)c2n1`, the pIC50 is 6.89 in [1], 7.89 in series [2] and 6.68 in [3]. The AUC (as a rule, concentration integrated over time) came out at 2.44 µM·h in series [5], 43 µM·h in series [7], 16.4 µM·h in series [14] and 17.9 µM·h in [15]. The Cmax (commonly the highest concentration seen after dosing) is 2580 nM in [6], 3200 nM in [10], 6810 nM in [11] and 2290 nM in series [13]. Also, the Tmax – broadly, the time at which the peak concentration occurs – in series [8] was 3.3 h; in [9] it was 2 h; in series [12], 2 h. The Activity stood at 85% in the series listed under Rattus norvegicus; 95% in the series listed under Homo sapiens; 93% in the series listed under Canis familiaris; 90% in the series listed under Mus musculus; 89% with Rhesus monkey. Moreover, 40 mg/kg produced 96% inhibition in vivo with A2780.
On to `N#CCc1cnn2c(NCc3cccnc3)cc(-c3ccccc3)nc12`, for which the pIC50 in [1] was 5.96; in series [4] it was 5.88; in series [2] it was 7.31.
As to `CCc1cc(NCc2cccnc2)n2ncc(Br)c2n1`, the figures for the pIC50 in [1], in series [2] and in series [3] were 6.04, 7.74 and 6.28, respectively.
In the case of `CNc1cc(NCc2cccnc2)n2ncc(Br)c2n1`, the pIC50 was 5.34 in [1], 7.37 in series [2] and 5.92 in [3].
On to `C=Cc1cnn2c(NCc3cccnc3)cc(-c3ccccc3)nc12`, for which, in [2], the pIC50 is 7.05.
In series [2], `FC(F)(F)c1cnn2c(NCc3cccnc3)cc(-c3ccccc3)nc12` had a pIC50 of 7.02.
Same read-out and setting: then `CC(C)c1cnn2c(NCc3cccnc3)cc(-c3ccccc3)nc12`, with 6.43.
`CSc1cnn2c(NCc3cccnc3)cc(-c3ccccc3)nc12`: the pIC50 in [1] is 5.74; in [4] it was 6.05; in [2], 8.15.
Take `Fc1ccccc1-c1cc(Nc2ccccc2)n2ncc(Br)c2n1`: the figures for the pIC50 in [1] and in [2] were 4.88 and 6.39, respectively.
On to `CS(=O)(=O)c1ccc(Nc2cc(-c3ccccc3Cl)nc3c(Br)cnn23)cc1`, for which the pIC50 in series [1] was 6.35; in series [2] it was 6.46; in series [3] it was 6.05.
`c1ccc(Cc2cnn3c(NCc4cccnc4)cc(-c4ccccc4)nc23)cc1` gave a pIC50 in [2] of 4.80.
As for `O=[N+]([O-])c1cnn2c(NCc3cccnc3)cc(-c3ccccc3)nc12`, the negative-log IC50 (pIC50) in [2] was < 4.30.
`OCc1cnn2c(NCc3cccnc3)cc(-c3ccccc3)nc12` had a pIC50 in series [2] of 5.66.
As for `Brc1cnn2c(NCc3cccnc3)cc(C3CC3)nc12`, the figures for the pIC50 in series [1], in series [2] and in series [3] were 5.95, 7.35 and 5.82, respectively.
`c1ccc(-c2cc(NCc3cccnc3)n3nccc3n2)cc1`: the pIC50 in series [2] is 6.60.
As for `Cc1cnn2c(NCc3cccnc3)cc(-c3ccccc3)nc12`, the results for the pIC50 in series [4] and in series [2] were 5.85 and 7.14, respectively.
`Clc1ccccc1-c1cc(NCc2cccnc2)n2ncc(Br)c2n1`: the pIC50 in series [1] is 7.27; in [2], 8.40 and 8.52; in series [3], 6.30.
With `CCCCc1cnn2c(NCc3cccnc3)cc(-c3ccccc3)nc12`, the pIC50 in series [2] was 5.92.
As to `Clc1cccc(-c2cc(NCc3ccncc3)n3nccc3n2)c1Cl`, the pIC50 in [2] is 6.30.
Regarding `Brc1cnn2c(NCc3cccnc3)cc(-c3cccs3)nc12`, the pIC50 in [1] is 6.32; in [2], 7.89; in series [3], 6.12.
Regarding `CC(=O)NCCSc1cnn2c(NCc3cccnc3)cc(-c3ccccc3)nc12`, the pIC50 was 7.47 in series [1], 4.92 in [4] and 8.70 in series [2].
In series [2], `CC(Nc1cc(-c2ccccc2)nc2c(Br)cnn12)c1cccnc1` (stereo unspecified) showed a pIC50 of 5.52.

The record behind these values is ChEMBL document CHEMBL1140538, “Pyrazolo[1,5-a]pyrimidines as orally available inhibitors of cyclin-dependent kinase 2” (Bioorg Med Chem Lett, 2007).
